# Laboratory results: US20140309244A1, “NOVEL MICROBIOCIDES” (SYNGENTA PARTICIPATIONS AG, priority 2010, published 2014)
# Test system: Puccinia recondita f. sp. tritici
# Assay: Puccinia recondita f. sp. tritici / wheat / leaf disc preventative (brown rust)
# Assay type: in vivo
# Details: foliar, wheat cv Kanzler leaf segments, inoculated 1 day after application, assessed 7-9 days after application, read-out: control of Puccinia recondita f. sp. tritici (percent disease control compared to untreated)
# Description: Puccinia recondita f. sp. tritici/Wheat/Leaf Disc Preventative (Brown Rust) Wheat leaf segments cultivated variety (cv) Kanzler were placed on agar in 24-well plates and sprayed with formulated test compound diluted in water at an application rate of 200 ppm. The leaf disks were inoculated with a spore suspension of the fungus 1 day after application. The inoculated leaf segments were incubated at 19° C. and 75% relative humidity under a light regime of 12/12 h (light/dark) in a climate cabinet and the activity of a compound was assessed as percent disease control compared to untreated when an appropriate level of disease damage appears in untreated check leaf segments (7-9 days after application). […].103
row,Compound,pest or weed control at 200 ppm [%]
1,CCO/N=C(\C)c1cccc(CCCO/N=C(\C)c2cccc(C)n2)n1 [P.01],≥ 80
2,CO/N=C(\C)c1cccc(CC(C)CO/N=C(\C)c2cccc(C)n2)n1 (stereo not drawn) [P.03],≥ 80
3,CO/N=C(\C)c1cccc(CCCO/N=C(\C)c2cccc(-c3ccccc3OC)n2)n1 [P.08],≥ 80
4,C=CCO/N=C(\C)c1cccc(CCCO/N=C(\C)c2cccc(C)n2)n1 [P.09],≥ 80

# Test system: Puccinia recondita f. sp. tritici
# Assay: Puccinia recondita f. sp. tritici / wheat / leaf disc curative (brown rust)
# Assay type: in vivo
# Details: foliar, wheat cv Kanzler leaf segments, applied 1 day after inoculation, assessed 6-8 days after application, read-out: control of Puccinia recondita f. sp. tritici (percent disease control compared to untreated)
# Description: Puccinia recondita f. sp. tritici/Wheat/Leaf Disc Curative (Brown Rust): Wheat leaf segments cv Kanzler were placed on agar in 24-well plates. The leaf segments were inoculated with a spore suspension of the fungus. The plates were stored in darkness at 19° C. and 75% relative humidity. The formulated test compound diluted in water was applied at an application rate of 200 ppm 1 day after inoculation.
row,Compound,pest or weed control at 200 ppm [%]
1,CCO/N=C(\C)c1cccc(CCCO/N=C(\C)c2cccc(C)n2)n1 [P.01],≥ 80
2,CO/N=C(\C)c1cccc(CC(C)CO/N=C(\C)c2cccc(C)n2)n1 (stereo not drawn) [P.03],≥ 80
3,CO/N=C(\C)c1cccc(CCCO/N=C(\C)c2cccc(-c3ccccc3OC)n2)n1 [P.08],≥ 80
4,C=CCO/N=C(\C)c1cccc(CCCO/N=C(\C)c2cccc(C)n2)n1 [P.09],≥ 80

# Test system: Phaeosphaeria nodorum (Septoria nodorum)
# Assay: Phaeosphaeria nodorum (Septoria nodorum) / wheat / leaf disc preventative (glume blotch)
# Assay type: in vivo
# Details: Parastagonospora nodorum, foliar, wheat cv Kanzler leaf segments, inoculated 2 days after application, assessed 5-7 days after application, read-out: control of Phaeosphaeria nodorum (percent disease control compared to untreated)
row,Compound,pest or weed control at 200 ppm [%]
1,CCO/N=C(\C)c1cccc(CCCO/N=C(\C)c2cccc(C)n2)n1 [P.01],≥ 80
2,CO/N=C(\C)c1cccc(CC(C)CO/N=C(\C)c2cccc(C)n2)n1 (stereo not drawn) [P.03],≥ 80
3,CO/N=C(\C)c1cccc(CCCO/N=C(\C)c2cccc(-c3ccccc3OC)n2)n1 [P.08],≥ 80
4,C=CCO/N=C(\C)c1cccc(CCCO/N=C(\C)c2cccc(C)n2)n1 [P.09],≥ 80

# Test system: Pyrenophora teres
# Assay: Pyrenophora teres / barley / leaf disc preventative (net blotch)
# Assay type: in vivo
# Details: foliar, barley cv Hasso leaf segments, inoculated two days after application, assessed 5-7 days after application, read-out: control of Pyrenophora teres (disease control compared to untreated)
row,Compound,pest or weed control at 200 ppm [%]
1,CCO/N=C(\C)c1cccc(CCCO/N=C(\C)c2cccc(C)n2)n1 [P.01],≥ 80
2,CO/N=C(\C)c1cccc(CC(C)CO/N=C(\C)c2cccc(C)n2)n1 (stereo not drawn) [P.03],≥ 80
3,CO/N=C(\C)c1cccc(CCCO/N=C(\C)c2cccc(-c3ccccc3OC)n2)n1 [P.08],≥ 80
4,C=CCO/N=C(\C)c1cccc(CCCO/N=C(\C)c2cccc(C)n2)n1 [P.09],≥ 80

# Test system: Botryotinia fuckeliana (Botrytis cinerea)
# Assay: Botryotinia fuckeliana (Botrytis cinerea) / liquid culture (gray mould)
# Assay type: cell-based
# Details: Vogels broth, 96-well plate, 24° C., 3-4 days after application, read-out: control of Botryotinia fuckeliana (inhibition of growth, photometric)
row,Compound,inhibition at 200 ppm [%]
1,CCO/N=C(\C)c1cccc(CCCO/N=C(\C)c2cccc(C)n2)n1 [P.01],≥ 80
2,CO/N=C(\C)c1cccc(CC(C)CO/N=C(\C)c2cccc(C)n2)n1 (stereo not drawn) [P.03],≥ 80
3,CO/N=C(\C)c1cccc(CCCO/N=C(\C)c2cccc(-c3ccccc3OC)n2)n1 [P.08],≥ 80
4,C=CCO/N=C(\C)c1cccc(CCCO/N=C(\C)c2cccc(C)n2)n1 [P.09],≥ 80

# Test system: Glomerella lagenarium (Colletotrichum lagenarium)
# Assay: Glomerella lagenarium (Colletotrichum lagenarium) / liquid culture (anthracnose)
# Assay type: cell-based
# Details: Colletotrichum orbiculare, PDB potato dextrose broth, 96-well plate, 24° C., 3-4 days after application, read-out: control of Glomerella lagenarium (inhibition of growth, photometric)
row,Compound,inhibition at 200 ppm [%]
1,CCO/N=C(\C)c1cccc(CCCO/N=C(\C)c2cccc(C)n2)n1 [P.01],≥ 80
2,CO/N=C(\C)c1cccc(CC(C)CO/N=C(\C)c2cccc(C)n2)n1 (stereo not drawn) [P.03],≥ 80
3,C=CCO/N=C(\C)c1cccc(CCCO/N=C(\C)c2cccc(C)n2)n1 [P.09],≥ 80

# Test system: Mycosphaerella arachidis (Cercospora arachidicola)
# Assay: Mycosphaerella arachidis (Cercospora arachidicola) / liquid culture (early leaf spot)
# Assay type: cell-based
# Details: PDB potato dextrose broth, 96-well plate, 24° C., 4-5 days after application, read-out: control of Mycosphaerella arachidis (inhibition of growth, photometric)
row,Compound,inhibition at 200 ppm [%]
1,CCO/N=C(\C)c1cccc(CCCO/N=C(\C)c2cccc(C)n2)n1 [P.01],≥ 80
2,CO/N=C(\C)c1cccc(CC(C)CO/N=C(\C)c2cccc(C)n2)n1 (stereo not drawn) [P.03],≥ 80
3,CO/N=C(\C)c1cccc(CCCO/N=C(\C)c2cccc(-c3ccccc3OC)n2)n1 [P.08],≥ 80
4,C=CCO/N=C(\C)c1cccc(CCCO/N=C(\C)c2cccc(C)n2)n1 [P.09],≥ 80

# Test system: Mycosphaerella graminicola (Septoria tritici)
# Assay: Mycosphaerella graminicola (Septoria tritici) / liquid culture (Septoria blotch)
# Assay type: cell-based
# Details: Zymoseptoria tritici, PDB potato dextrose broth, 96-well plate, 24° C., 4-5 days after application, read-out: control of Mycosphaerella graminicola (inhibition of growth, photometric)
row,Compound,inhibition at 200 ppm [%]
1,CCO/N=C(\C)c1cccc(CCCO/N=C(\C)c2cccc(C)n2)n1 [P.01],≥ 80
2,CO/N=C(\C)c1cccc(CC(C)CO/N=C(\C)c2cccc(C)n2)n1 (stereo not drawn) [P.03],≥ 80
3,CO/N=C(\C)c1cccc(CCCO/N=C(\C)c2cccc(-c3ccccc3OC)n2)n1 [P.08],≥ 80
4,C=CCO/N=C(\C)c1cccc(CCCO/N=C(\C)c2cccc(C)n2)n1 [P.09],≥ 80

# Test system: Thanatephorus cucumeris (Rhizoctonia solani)
# Assay: Thanatephorus cucumeris (Rhizoctonia solani) / liquid culture (foot rot, damping-off)
# Assay type: cell-based
# Details: liquid culture of mycelia fragments, PDB potato dextrose broth, 96-well plate, 24° C., 3-4 days after application, read-out: control of Thanatephorus cucumeris (inhibition of growth, photometric)
# Description: Thanatephorus cucumeris (Rhizoctonia solani)/Liquid Culture (Foot Rot, Damping-Off): Mycelia fragments of a newly grown liquid culture of the fungus are directly mixed into nutrient broth (PDB potato dextrose broth). After placing a DMSO solution of the test compounds into a 96-well microtiter plate at an application rate of 200 ppm, the nutrient broth containing the fungal material was added. The test plates were incubated at 24° C. and the inhibition of growth was determined photometrically 3-4 days after application.
row,Compound,inhibition at 200 ppm [%]
1,CO/N=C(\C)c1cccc(CC(C)CO/N=C(\C)c2cccc(C)n2)n1 (stereo not drawn) [P.03],≥ 80

# Test system: Monographella nivalis (Microdochium nivale)
# Assay: Monographella nivalis (Microdochium nivale) / liquid culture (foot rot cereals)
# Assay type: cell-based
# Details: PDB potato dextrose broth, 96-well plate, 24° C., 4-5 days after application, read-out: control of Monographella nivalis (inhibition of growth, photometric)
# Description: Monographella nivalis (Microdochium nivale)/Liquid Culture (Foot Rot Cereals): Conidia of the fungus from cryogenic storage were directly mixed into nutrient broth (PDB potato dextrose broth). After placing a DMSO solution of test compound into a 96-well microtiter plate at an application rate of 200 ppm, the nutrient broth containing the fungal spores was added. The test plates were incubated at 24° C. and the inhibition of growth was determined photometrically 4-5 days after application. […].103
row,Compound,inhibition at 200 ppm [%]
1,CO/N=C(\C)c1cccc(CC(C)CO/N=C(\C)c2cccc(C)n2)n1 (stereo not drawn) [P.03],≥ 80
2,CO/N=C(\C)c1cccc(CCCO/N=C(\C)c2cccc(-c3ccccc3OC)n2)n1 [P.08],≥ 80
3,C=CCO/N=C(\C)c1cccc(CCCO/N=C(\C)c2cccc(C)n2)n1 [P.09],≥ 80

# Test system: Blumeria graminis f. sp. tritici (Erysiphe graminis f. sp. tritici)
# Assay: Blumeria graminis f. sp. tritici (Erysiphe graminis f. sp. tritici) / wheat / leaf disc preventative (powdery mildew on wheat)
# Assay type: in vivo
# Details: foliar, wheat cv. Kanzler leaf segments, inoculated 1 day after application, assessed 6-8 days after application, read-out: control of Blumeria graminis (percent disease control compared to untreated)
row,Compound,pest or weed control at 200 ppm [%]
1,CCO/N=C(\C)c1cccc(CCCO/N=C(\C)c2cccc(C)n2)n1 [P.01],≥ 80
2,CO/N=C(\C)c1cccc(CC(C)CO/N=C(\C)c2cccc(C)n2)n1 (stereo not drawn) [P.03],≥ 80
3,CO/N=C(\C)c1cccc(CCCO/N=C(\C)c2cccc(-c3ccccc3OC)n2)n1 [P.08],≥ 80
4,C=CCO/N=C(\C)c1cccc(CCCO/N=C(\C)c2cccc(C)n2)n1 [P.09],≥ 80
